Assay results published in patent US9758485B2, “Compounds for controlling arthropods” (priority 2013, dated 2017).

Experiment: logP determination by HPLC on a reversed-phase column (C18), EEC Directive 79/831 Annex V.A8
Format: physicochemical
Settings: HPLC on reversed-phase column (C18)

| Compound | log P |
| --- | --- |
| CCS(=O)(=O)c1cc(C(F)(C(F)(F)F)C(F)(F)F)cc(C)c1-n1cc(-c2ccc(Cl)c(C(=O)NC3(C#N)CC3)c2)cn1 [I-T3-209] | 3.8 |
| CCSc1cc(C(F)(C(F)(F)F)C(F)(F)F)cc(C)c1-n1cc(-c2ccc(Cl)c(C(=O)NC3(C#N)CC3)c2)cn1 [I-T3-202] | 4.5 |
| N#CC1(NC(=O)c2cc(-c3cnn(-c4c(I)cc(C(F)(C(F)(F)F)C(F)(F)F)cc4OC(F)(F)F)c3)ccc2Cl)CC1 [I-T3-226] | 4.6 |
| CN(C(=O)c1cc(-c2cnn(-c3c(Cl)cc(C(F)(C(F)(F)F)C(F)(F)F)cc3OC(F)(F)F)c2)cnc1Cl)C1CC1 [I-T3-208] | 4.6 |
| CC[S+]([O-])c1cc(C(F)(C(F)(F)F)C(F)(F)F)cc(C)c1-n1cc(-c2ccc(Cl)c(C(=O)NC3(C#N)CC3)c2)cn1 (stereo not drawn) [I-T3-206] | 3.6 |
| N#CC1(NC(=O)c2cc(-c3cnn(-c4c(Cl)cc(C(O)(C(F)(F)F)C(F)(F)F)cc4Cl)c3)cnc2Cl)CC1 [I-T3-222] | 3.0 |
| O=C(NC1CC1)c1cc(-c2cnn(-c3c(Cl)cc(C(O)(C(F)(F)F)C(F)(F)F)cc3Cl)c2)cnc1Cl [I-T3-221] | 3.0 |
| CCS(=O)(=O)c1cc(C(F)(F)F)cc(Cl)c1-n1cc(-c2ccc(Cl)c(C(=O)NC3(C#N)CC3)c2)cn1 [I-T3-183] | 3.1 |
| CCS(=O)(=O)c1cc(C(F)(C(F)(F)F)C(F)(F)F)cc(S(=O)(=O)CC)c1-n1cc(-c2ccc(Cl)c(C(=O)NC3(C#N)CC3)c2)cn1 [I-T3-198] | 3.7 |
| CCS(=O)(=O)c1cc(C(F)(C(F)(F)F)C(F)(F)F)cc(C)c1-n1cc(-c2ccc(Cl)c(C(=O)NC3CC3)c2)cn1 [I-T3-210] | 3.9 |
| CN(C(=O)c1cc(-c2cnn(-c3c(Cl)cc(C(O)(C(F)(F)F)C(F)(F)F)cc3Cl)c2)cnc1Cl)C1(C#N)CC1 [I-T3-223] | 3.3 |
| N#CC1(NC(=O)c2cc(-c3cnn(-c4c(Cl)cc(C(F)(C(F)(F)F)C(F)(F)F)cc4I)c3)ccc2Cl)CC1 [I-T3-212] | 4.3 |
| N#Cc1cc(C(F)(C(F)(F)F)C(F)(F)F)cc(Cl)c1-n1cc(-c2cnc(Cl)c(C(=O)NC3(C#N)CC3)c2)cn1 [I-T3-207] | 3.5 |
| Cc1cc(C(F)(C(F)(F)F)C(F)(F)F)cc(C(F)(F)F)c1-n1cc(-c2cnc(Cl)c(C(=O)NCC3(C#N)CC3)c2)cn1 [I-T3-197] | 4.0 |
| O=C(NC1CC1)c1cc(-c2cnn(-c3c(I)cc(C(F)(C(F)(F)F)C(F)(F)F)cc3OC(F)(F)F)c2)ccc1Cl [I-T3-224] | 4.7 |
| CN(C(=O)c1cc(-c2cnn(-c3c(I)cc(C(F)(C(F)(F)F)C(F)(F)F)cc3OC(F)(F)F)c2)ccc1Cl)C1CC1 [I-T3-225] | 5.2 |
| O=C(NC1CC1)c1cc(-c2cnn(-c3c(I)cc(C(F)(C(F)(F)F)C(F)(F)F)cc3C(F)(F)F)c2)ccc1Cl [I-T3-227] | 4.5 |
| CCS(=O)(=O)c1cc(C(F)(C(F)(F)F)C(F)(F)F)cc(Cl)c1-n1cc(-c2ccc(Cl)c(C(=O)NC3(C#N)CC3)c2)cn1 [I-T3-201] | 4.0 |
| N#CC1(NC(=O)c2cc(-c3cnn(-c4c(F)cc(C(F)(F)F)cc4Cl)c3)ccc2Cl)CC1 [I-T3-187] | 3.3 |
| N#CC1(NC(=O)c2cc(-c3cnn(-c4c(I)cc(C(F)(C(F)(F)F)C(F)(F)F)cc4C(F)(F)F)c3)ccc2Cl)CC1 [I-T3-228] | 4.4 |
| CCSc1cc(C(F)(C(F)(F)F)C(F)(F)F)cc(C)c1-n1cc(-c2ccc(Cl)c(C(=O)NC3CC3)c2)cn1 [I-T3-203] | 4.6 |
| CN(C(=O)c1cc(-c2cnn(-c3c(Cl)cc(C(F)(C(F)(F)F)C(F)(F)F)cc3C#N)c2)cnc1Cl)C1CC1 [I-T3-204] | 3.9 |
| N#CC1(NC(=O)c2cc(-c3cnn(-c4c(Cl)cc(C(F)(C(F)(F)F)C(F)(F)F)cc4OC(F)F)c3)cnc2Cl)CC1 [I-T3-218] | 3.7 |
| N#CC1(NC(=O)c2cc(-c3cnn(-c4c(F)c(F)c(C(F)(F)F)c(F)c4F)c3)ccc2Cl)CC1 [I-T3-188] | 3.4 |
| CCS(=O)(=O)c1cc(C(F)(F)F)cc(C#N)c1-n1cc(-c2ccc(Cl)c(C(=O)NC3(C#N)CC3)c2)cn1 [I-T3-190] | 2.9 |
| O=C(NC1CC1)c1cc(-c2cnn(-c3c(Cl)cc(C(F)(C(F)(F)F)C(F)(F)F)cc3I)c2)ccc1Cl [I-T3-213] | 4.4 |
| CN(C(=O)c1cc(-c2cnn(-c3c(Cl)cc(C(F)(C(F)(F)F)C(F)(F)F)cc3OC(F)F)c2)ccc1Cl)C1CC1 [I-T3-216] | 4.7 |

Same assay, conditions: HPLC, reversed-phase C18, acetonitrile/water with formic acid, 55° C.

| Compound | logP |
| --- | --- |
| O=C(NC1CC1)c1cc(-c2ccn(-c3c(Cl)cc(C(F)(C(F)(F)F)C(F)(F)F)cc3Cl)c2)cnc1Cl [I-T46-4] | 4.5 |
| CN(C(=O)c1cc(-c2ccn(-c3c(Cl)cc(C(F)(C(F)(F)F)C(F)(F)F)cc3Cl)c2)cnc1Cl)C1CC1 [I-T46-3] | 5.0 |
| N#CC1(NC(=O)c2cc(-c3ccn(-c4c(Cl)cc(C(F)(C(F)(F)F)C(F)(F)F)cc4Cl)c3)cnc2Cl)CC1 [I-T46-5] | 4.4 |

Same assay, conditions: HPLC-MS method a), Table I-T3

| Compound | logP^a) |
| --- | --- |
| Cc1cc(C(F)(C(F)(F)F)C(F)(F)F)cc(C)c1-n1cc(-c2cc(C(=O)NC3CC3)c(Cl)cc2F)cn1 [I-T3-14] | 4.5 |
| N#CC1(NC(=O)c2cccc(-c3cnn(-c4c(Cl)cc(C(F)(C(F)(F)F)C(F)(F)F)cc4Cl)c3)c2F)CC1 [I-T3-22] | 4.1 |

Same assay, conditions: HPLC-MS, reversed-phase column (C18)

| Compound | log P |
| --- | --- |
| CC[S+]([O-])c1cc(C(F)(C(F)(F)F)C(F)(F)F)cnc1-n1cc(-c2ccc(Cl)c(C(=O)NC3(C#N)CC3)c2)cn1 (stereo not drawn) [I-T3-153] | 3.7 |
| O=C(NC1CC1)c1cccc(-c2cnn(-c3ncc(C(F)(F)F)cc3Cl)c2)c1 [I-T3-122] | 3.0 |
| N#Cc1cc(C(F)(F)F)cc(Cl)c1-n1cc(-c2ccc(Cl)c(C(=O)NC3CC3)c2)cn1 [I-T3-174] | 3.1 |
| CCS(=O)(=O)c1cc(C(F)(F)F)cc(Cl)c1-n1cc(-c2ccc(Cl)c(C(=O)NC3CC3)c2)cn1 [I-T3-178] | 3.2 |
| CC[S+]([O-])c1cc(C(F)(F)F)cc(Cl)c1-n1cc(-c2ccc(Cl)c(C(=O)NC3CC3)c2)cn1 (stereo not drawn) [I-T3-179] | 3.0 |

Same assay, conditions: reversed-phase HPLC column (C18), HPLC, reversed-phase C18, acetonitrile/water with formic acid, 55° C.; read-out: logP

| chromatographic logP | Compound |
| --- | --- |
| 4.69 | CCSc1cc(C(F)(C(F)(F)F)C(F)(F)F)cnc1-n1cc(-c2ccc(Cl)c(C(=O)NC3CC3)c2)cn1 [I-T3-156, 2-Chloro-N-cyclopropyl-5-{1-[3-(ethylsulphanyl)-5-(1,1,1,2,3,3,3-heptafluoropropan-2-yl)pyridin-2-yl]-1H-pyrazol-4-yl}benzamide] |
| 4.38 | Cc1cc(C(F)(C(F)(F)F)C(F)(F)F)cc(Br)c1N [2-bromo-6-methyl-4-heptafluoroisopropylaniline] |
| 4.67 | CCc1cc(C(F)(C(F)(F)F)C(F)(F)F)cc(Cl)c1N [2-chloro-6-ethyl-4-heptafluoroisopropylaniline] |
| 4.67 | Cc1cc(C(F)(C(F)(F)F)C(F)(F)F)cc(C(F)(F)F)c1N [4-heptafluoroisopropyl-2-methyl-6-trifluoromethylaniline] |
| 4.74 | FC(F)(F)C(F)(c1cnc(-n2cc(Br)cn2)c(Cl)c1)C(F)(F)F [2-(4-bromo-1H-pyrazol-1-yl)-3-chloro-5-(1,1,1,2,3,3,3-heptafluoropropan-2-yl)pyridine] |

| Compound | chromatographic logP |
| --- | --- |
| O=C(NC1CC1)c1cc(-c2cnn(-c3ncc(C(F)(C(F)(F)F)C(F)(F)F)cc3Cl)c2)ccc1Cl [2-chloro-5-{1-[3-chloro-5-(1,1,1,2,3,3,3-heptafluoropropan-2-yl)pyridin-2-yl]-1H-pyrazol-4-yl}-N-cyclopropylbenzamide] | 4.08 |

Same assay, conditions: reversed-phase HPLC column (C18), HPLC-MS method a), reversed-phase column (C18); read-out: logP^a)

| chromatographic logP | Compound |
| --- | --- |
| 4.7 | CCSc1cc(C(F)(C(F)(F)F)C(F)(F)F)cnc1-n1cc(-c2ccc(Cl)c(C(=O)NC3CC3)c2)cn1 [I-T3-156, 2-Chloro-N-cyclopropyl-5-{1-[3-(ethylsulphanyl)-5-(1,1,1,2,3,3,3-heptafluoropropan-2-yl)pyridin-2-yl]-1H-pyrazol-4-yl}benzamide] |

Same assay, conditions: reversed-phase HPLC column (C18), HPLC-MS, reversed-phase column (C18); read-out: log P

| chromatographic logP | Compound |
| --- | --- |
| 4.7 | CCSc1cc(C(F)(C(F)(F)F)C(F)(F)F)cnc1-n1cc(-c2ccc(Cl)c(C(=O)NC3CC3)c2)cn1 [I-T3-156, 2-Chloro-N-cyclopropyl-5-{1-[3-(ethylsulphanyl)-5-(1,1,1,2,3,3,3-heptafluoropropan-2-yl)pyridin-2-yl]-1H-pyrazol-4-yl}benzamide] |
